Our source for the mutagenic call values is PubChem BioAssay AID1259407 (Chemical Carcinogenesis Research Information System (CCRIS), 2018).

This data set relates to CCRIS mutagenicity, Ames/micronucleus/aberration tests. In words: CCRIS mutagenicity studies.
[1] abbreviates: Test System: AMES SALMONELLA TYPHIMURIUM, Strain/Indicator: TA98, Metabolic Activation: NONE, Method: PREINCUBATION
The mark [2] stands for this setting: Test System: AMES SALMONELLA TYPHIMURIUM, Strain/Indicator: TA100, Metabolic Activation: NONE, Method: PREINCUBATION
The mark [3] stands for this setting: Test System: AMES SALMONELLA TYPHIMURIUM, Strain/Indicator: TA98, Metabolic Activation: NONE, Method: STANDARD PLATE.

Calls of active or inactive are those of the source. How the calls were made is not given here.

Take `C=C(C)C(=O)OC(C)C`: the mutagenic call was “inactive; negative” (Test System: AMES SALMONELLA TYPHIMURIUM, Strain/Indicator: TA98, Metabolic Activation: HAMSTER, LIVER, S-9, AROCLOR 1254 (10%), Method: PREINCUBATION); “inactive; negative” under setting [1]; “inactive; negative” (Test System: AMES SALMONELLA TYPHIMURIUM, Strain/Indicator: TA98, Metabolic Activation: RAT, LIVER, S-9, AROCLOR 1254 (10%), Method: PREINCUBATION); “inactive; negative” (Test System: AMES SALMONELLA TYPHIMURIUM, Strain/Indicator: TA100, Metabolic Activation: HAMSTER, LIVER, S-9, AROCLOR 1254 (10%), Method: PREINCUBATION); “inactive; negative” under setting [2]; “inactive; negative” (Test System: AMES SALMONELLA TYPHIMURIUM, Strain/Indicator: TA100, Metabolic Activation: RAT, LIVER, S-9, AROCLOR 1254 (10%), Method: PREINCUBATION). Further, the mutagenic call (Test System: AMES SALMONELLA TYPHIMURIUM, Strain/Indicator: TA1535, Metabolic Activation: HAMSTER, LIVER, S-9, AROCLOR 1254 (10%), Method: PREINCUBATION) was “inactive; negative”; the mutagenic call (Test System: AMES SALMONELLA TYPHIMURIUM, Strain/Indicator: TA1535, Metabolic Activation: NONE, Method: PREINCUBATION) is “inactive; negative”; the mutagenic call (Test System: AMES SALMONELLA TYPHIMURIUM, Strain/Indicator: TA1535, Metabolic Activation: RAT, LIVER, S-9, AROCLOR 1254 (10%), Method: PREINCUBATION) was “inactive; negative”; the mutagenic call (Test System: AMES SALMONELLA TYPHIMURIUM, Strain/Indicator: TA1537, Metabolic Activation: HAMSTER, LIVER, S-9, AROCLOR 1254 (10%), Method: PREINCUBATION) was “inactive; negative”; the mutagenic call (Test System: AMES SALMONELLA TYPHIMURIUM, Strain/Indicator: TA1537, Metabolic Activation: NONE, Method: PREINCUBATION) was “inactive; negative”; the mutagenic call (Test System: AMES SALMONELLA TYPHIMURIUM, Strain/Indicator: TA1537, Metabolic Activation: RAT, LIVER, S-9, AROCLOR 1254 (10%), Method: PREINCUBATION) is “inactive; negative”.
As to `CC1(C)O[C@@H]1COc1c2occc2cc2ccc(=O)oc12`, the mutagenic call was “inactive; negative” (Test System: AMES SALMONELLA TYPHIMURIUM, Strain/Indicator: TA92, Metabolic Activation: NONE, Method: SPOT TEST); “inactive; negative” (Test System: AMES SALMONELLA TYPHIMURIUM, Strain/Indicator: TA92, Metabolic Activation: RAT, LIVER, S-9, AROCLOR 1254, Method: SPOT TEST); “inactive; negative” (Test System: AMES SALMONELLA TYPHIMURIUM, Strain/Indicator: TA94, Metabolic Activation: NONE, Method: SPOT TEST); “inactive; negative” (Test System: AMES SALMONELLA TYPHIMURIUM, Strain/Indicator: TA94, Metabolic Activation: RAT, LIVER, S-9, AROCLOR 1254, Method: SPOT TEST); “inactive; negative” (Test System: AMES SALMONELLA TYPHIMURIUM, Strain/Indicator: TA97, Metabolic Activation: NONE, Method: SPOT TEST); “inactive; negative” (Test System: AMES SALMONELLA TYPHIMURIUM, Strain/Indicator: TA97, Metabolic Activation: RAT, LIVER, S-9, AROCLOR 1254, Method: SPOT TEST). The mutagenic call is “inactive; negative” (Test System: AMES SALMONELLA TYPHIMURIUM, Strain/Indicator: TA98, Metabolic Activation: NONE, Method: SPOT TEST); “inactive; negative” (Test System: AMES SALMONELLA TYPHIMURIUM, Strain/Indicator: TA98, Metabolic Activation: RAT, LIVER, S-9, AROCLOR 1254, Method: SPOT TEST); “inactive; negative” (Test System: AMES SALMONELLA TYPHIMURIUM, Strain/Indicator: TA100, Metabolic Activation: NONE, Method: SPOT TEST); “inactive; negative” (Test System: AMES SALMONELLA TYPHIMURIUM, Strain/Indicator: TA100, Metabolic Activation: RAT, LIVER, S-9, AROCLOR 1254, Method: SPOT TEST); “inactive; negative” (Test System: AMES SALMONELLA TYPHIMURIUM, Strain/Indicator: TA102, Metabolic Activation: NONE, Method: SPOT TEST); “inactive; negative” (Test System: AMES SALMONELLA TYPHIMURIUM, Strain/Indicator: TA102, Metabolic Activation: RAT, LIVER, S-9, AROCLOR 1254, Method: SPOT TEST).
With `CN1CC=C(c2ccccc2)CC1`, the mutagenic call reads like this: under setting [2], “inactive; negative”; (Test System: AMES SALMONELLA TYPHIMURIUM, Strain/Indicator: TA102, Metabolic Activation: NONE, Method: PREINCUBATION) “inactive; negative”.
As to `CCc1ccc([N+](=O)[O-])cc1`, the mutagenic call by setting is: under setting [1], “inactive; negative”; (Test System: AMES SALMONELLA TYPHIMURIUM, Strain/Indicator: TA98, Metabolic Activation: RAT, LIVER, S-9, KANECHLOR 500, Method: PREINCUBATION) “inactive; negative”; under setting [2], “inactive; negative”; (Test System: AMES SALMONELLA TYPHIMURIUM, Strain/Indicator: TA100, Metabolic Activation: RAT, LIVER, S-9, KANECHLOR 500, Method: PREINCUBATION) “inactive; negative”.
For `Nc1ccc2cc(S(=O)(=O)O)c(N=Nc3ccc(N=Nc4ccc(NCCO)cc4NCCO)cc3OCCO)c(O)c2c1`, the mutagenic call reads like this: under setting [3], “inactive; negative”; (Test System: AMES SALMONELLA TYPHIMURIUM, Strain/Indicator: TA98, Metabolic Activation: RAT, LIVER, S-9, AROCLOR 1254, Method: STANDARD PLATE) “active; positive”; (Test System: AMES SALMONELLA TYPHIMURIUM, Strain/Indicator: TA100, Metabolic Activation: NONE, Method: STANDARD PLATE) “inactive; negative”; (Test System: AMES SALMONELLA TYPHIMURIUM, Strain/Indicator: TA100, Metabolic Activation: RAT, LIVER, S-9, AROCLOR 1254, Method: STANDARD PLATE) “inactive; negative”; (Test System: AMES SALMONELLA TYPHIMURIUM, Strain/Indicator: TA1538, Metabolic Activation: NONE, Method: STANDARD PLATE) “inactive; negative”; (Test System: AMES SALMONELLA TYPHIMURIUM, Strain/Indicator: TA1538, Metabolic Activation: RAT, LIVER, S-9, AROCLOR 1254, Method: STANDARD PLATE) “active; positive”.
Regarding `C/C([O-])=C(/N=Nc1cc(S(N)(=O)=O)ccc1[O-])C(=O)Nc1ccccc1.C/C([O-])=C(\N=Nc1cc(S(N)(=O)=O)ccc1[O-])C(=O)Nc1ccccc1.[Co+2]`, the mutagenic call reads like this: (Test System: MOUSE LYMPHOMA, Strain/Indicator: L5178Y (TK+/TK-), Metabolic Activation: NONE, Method: SUSPENSION/PLATE) “inactive; negative. reevaluation of results: negative”; (Test System: MOUSE LYMPHOMA, Strain/Indicator: L5178Y (TK+/TK-), Metabolic Activation: RAT, LIVER, S-9, AROCLOR 1254, Method: SUSPENSION/PLATE) “inactive; negative. reevaluation of results: negative”.
Turning to `[Zn]`, the mutagenic call is “inactive; negative” under setting [3]; “inactive; negative” (Test System: AMES SALMONELLA TYPHIMURIUM, Strain/Indicator: TA98, Metabolic Activation: RAT, LIVER, S-9, PHENOBARBITAL, Method: STANDARD PLATE); “inactive; negative” (Test System: AMES SALMONELLA TYPHIMURIUM, Strain/Indicator: TA102, Metabolic Activation: NONE, Method: STANDARD PLATE); “inactive; negative” (Test System: AMES SALMONELLA TYPHIMURIUM, Strain/Indicator: TA102, Metabolic Activation: RAT, LIVER, S-9, PHENOBARBITAL, Method: STANDARD PLATE); “inactive; negative” (Test System: AMES SALMONELLA TYPHIMURIUM, Strain/Indicator: TA1535, Metabolic Activation: NONE, Method: STANDARD PLATE); “inactive; negative” (Test System: AMES SALMONELLA TYPHIMURIUM, Strain/Indicator: TA1535, Metabolic Activation: RAT, LIVER, S-9, PHENOBARBITAL, Method: STANDARD PLATE). Moreover, the mutagenic call was “inactive; negative” (Test System: AMES SALMONELLA TYPHIMURIUM, Strain/Indicator: TA1537, Metabolic Activation: NONE, Method: STANDARD PLATE); “inactive; negative” (Test System: AMES SALMONELLA TYPHIMURIUM, Strain/Indicator: TA1537, Metabolic Activation: RAT, LIVER, S-9, PHENOBARBITAL, Method: STANDARD PLATE); “inactive; negative” (Test System: UDS HUMAN AMNION FL CELL LINE, Strain/Indicator: THY INCORP, Metabolic Activation: NONE, Method: LIQUID SCINTILLATION COUNTING).
